# Data as given in the supplement of paper PMC10307832.
# Legend:
# Assay in all cases: relative viability (nuclei count vs DMSO), 5 days (fraction); higher = more cells survive
# A549 = test system: A549
# How it was run: (§1)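 Each reported value is a median over duplicate plates. It expresses relative viability: treated-well nuclei count divided by vehicle-well nuclei count. Lung cancer cell lines in 1536-well plates were dosed by pin tool a day after seeding, alone with one drug or with a fixed anchor-drug dose plus five library-drug doses (not always all listed) in √10 steps, and nuclei were counted after 5 days.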
# HCC-366 = test system: HCC-366
# How it was run: as §1
# NCI-H3122 = test system: NCI-H3122
# How it was run: as §1
# NCI-H2085 = test system: NCI-H2085
# How it was run: as §1
# NCI-H1703 = test system: NCI-H1703
# How it was run: as §1
# NCI-H1299 = test system: NCI-H1299
# How it was run: as §1
# Calu-6 = test system: Calu-6
# How it was run: as §1
# LOU-NH91 = test system: LOU-NH91
# How it was run: as §1
# NCI-H1437 = test system: NCI-H1437
# How it was run: as §1
# EBC-1 = test system: EBC-1
# How it was run: as §1
# IA-LM = test system: IA-LM
# How it was run: as §1
# HCC-44 = test system: HCC-44
# How it was run: as §1
# LXF-289 = test system: LXF-289
# How it was run: as §1
compound,measurement,setting,value
Nc1ccn([C@@H]2O[C@H](CO)[C@@H](O)[C@@H]2O)c(=O)n1 [Cytarabine] + C[C@@H](Oc1cc(-c2cnn(C3CCNCC3)c2)cnc1N)c1c(Cl)ccc(F)c1Cl [Crizotinib] (partner 1 µM),relative viability,A549; first compound 0.005 µM,0.541
same,relative viability,A549; first compound 0.01581 µM,0.53
same,relative viability,A549; first compound 0.05 µM,0.449
same,relative viability,A549; first compound 0.1581 µM,0.0819
same,relative viability,A549; first compound 0.5 µM,0.0747
same,relative viability,HCC-366; first compound 0.005 µM,0.405
same,relative viability,HCC-366; first compound 0.01581 µM,0.43
same,relative viability,HCC-366; first compound 0.05 µM,0.216
same,relative viability,HCC-366; first compound 0.1581 µM,0.026
same,relative viability,HCC-366; first compound 0.5 µM,0.0284
same,relative viability,NCI-H3122; first compound 0.005 µM,0.264
same,relative viability,NCI-H3122; first compound 0.01581 µM,0.239
same,relative viability,NCI-H3122; first compound 0.05 µM,0.244
same,relative viability,NCI-H3122; first compound 0.1581 µM,0.192
same,relative viability,NCI-H3122; first compound 0.5 µM,0.204
same,relative viability,NCI-H2085; first compound 0.005 µM,0.718
same,relative viability,NCI-H2085; first compound 0.01581 µM,0.883
same,relative viability,NCI-H2085; first compound 0.05 µM,0.799
same,relative viability,NCI-H2085; first compound 0.1581 µM,0.552
same,relative viability,NCI-H2085; first compound 0.5 µM,0.621
same,relative viability,NCI-H1703; first compound 0.005 µM,0.484
same,relative viability,NCI-H1703; first compound 0.01581 µM,0.375
same,relative viability,NCI-H1703; first compound 0.05 µM,0.299
same,relative viability,NCI-H1703; first compound 0.1581 µM,0.148
same,relative viability,NCI-H1703; first compound 0.5 µM,0.205
same,relative viability,NCI-H1299; first compound 0.005 µM,0.956
same,relative viability,NCI-H1299; first compound 0.01581 µM,0.99
same,relative viability,NCI-H1299; first compound 0.05 µM,1.03
same,relative viability,NCI-H1299; first compound 0.1581 µM,0.961
same,relative viability,NCI-H1299; first compound 0.5 µM,0.943
same,relative viability,Calu-6; first compound 0.005 µM,0.722
same,relative viability,Calu-6; first compound 0.01581 µM,0.706
same,relative viability,Calu-6; first compound 0.05 µM,0.623
same,relative viability,Calu-6; first compound 0.1581 µM,0.433
same,relative viability,Calu-6; first compound 0.5 µM,0.259
same,relative viability,LOU-NH91; first compound 0.005 µM,0.753
same,relative viability,LOU-NH91; first compound 0.01581 µM,0.714
same,relative viability,LOU-NH91; first compound 0.05 µM,0.637
same,relative viability,LOU-NH91; first compound 0.1581 µM,0.511
same,relative viability,LOU-NH91; first compound 0.5 µM,0.56
same,relative viability,NCI-H1437; first compound 0.005 µM,0.576
same,relative viability,NCI-H1437; first compound 0.01581 µM,0.817
same,relative viability,NCI-H1437; first compound 0.05 µM,0.472
same,relative viability,NCI-H1437; first compound 0.1581 µM,0.258
same,relative viability,NCI-H1437; first compound 0.5 µM,0.156
same,relative viability,EBC-1; first compound 0.01581 µM,0.171
same,relative viability,EBC-1; first compound 0.05 µM,0.178
same,relative viability,EBC-1; first compound 0.1581 µM,0.149
same,relative viability,EBC-1; first compound 0.5 µM,0.159
same,relative viability,IA-LM; first compound 0.005 µM,0.864
same,relative viability,IA-LM; first compound 0.01581 µM,0.62
same,relative viability,IA-LM; first compound 0.05 µM,0.729
same,relative viability,IA-LM; first compound 0.1581 µM,0.414
same,relative viability,IA-LM; first compound 0.5 µM,0.121
same,relative viability,HCC-44; first compound 0.005 µM,0.776
same,relative viability,HCC-44; first compound 0.01581 µM,0.831
same,relative viability,HCC-44; first compound 0.05 µM,0.626
same,relative viability,HCC-44; first compound 0.1581 µM,0.383
same,relative viability,HCC-44; first compound 0.5 µM,0.378
same,relative viability,LXF-289; first compound 0.005 µM,0.745
same,relative viability,LXF-289; first compound 0.01581 µM,0.78
same,relative viability,LXF-289; first compound 0.05 µM,0.663
same,relative viability,LXF-289; first compound 0.1581 µM,0.339
same,relative viability,LXF-289; first compound 0.5 µM,0.389
CC(=O)O[C@@]12CO[C@@H]1C[C@H](O)[C@@]1(C)C(=O)[C@H](O)C3=C(C)[C@@H](OC(=O)[C@H](O)[C@@H](NC(=O)OC(C)(C)C)c4ccccc4)C[C@@](O)([C@@H](OC(=O)c4ccccc4)[C@H]21)C3(C)C [Docetaxel] + CC(C)C[C@H](NC(=O)[C@H](Cc1ccccc1)NC(=O)c1cnccn1)B(O)O [Bortezomib] (partner 0.002 µM),relative viability,HCC-366; first compound 0.0002 µM,1.07
same,relative viability,HCC-366; first compound 0.000632 µM,0.267
same,relative viability,HCC-366; first compound 0.002 µM,0.144
same,relative viability,HCC-366; first compound 0.006325 µM,0.0171
same,relative viability,NCI-H3122; first compound 0.0002 µM,1.04
same,relative viability,NCI-H3122; first compound 0.000632 µM,0.907
same,relative viability,NCI-H3122; first compound 0.002 µM,0.864
same,relative viability,NCI-H3122; first compound 0.006325 µM,0.368
same,relative viability,NCI-H3122; first compound 0.02 µM,0.227
same,relative viability,NCI-H2085; first compound 0.0002 µM,0.882
same,relative viability,NCI-H2085; first compound 0.000632 µM,1.06
same,relative viability,NCI-H2085; first compound 0.002 µM,0.718
same,relative viability,NCI-H2085; first compound 0.006325 µM,0.54
same,relative viability,NCI-H2085; first compound 0.02 µM,0.46
same,relative viability,NCI-H1703; first compound 0.0002 µM,0.256
same,relative viability,NCI-H1703; first compound 0.000632 µM,0.249
same,relative viability,NCI-H1703; first compound 0.006325 µM,0.149
same,relative viability,NCI-H1703; first compound 0.02 µM,0.0944
same,relative viability,NCI-H1299; first compound 0.0002 µM,1.05
same,relative viability,NCI-H1299; first compound 0.000632 µM,0.997
same,relative viability,NCI-H1299; first compound 0.002 µM,0.948
same,relative viability,NCI-H1299; first compound 0.006325 µM,0.586
same,relative viability,NCI-H1299; first compound 0.02 µM,0.503
same,relative viability,Calu-6; first compound 0.0002 µM,0.95
same,relative viability,Calu-6; first compound 0.000632 µM,0.828
same,relative viability,Calu-6; first compound 0.002 µM,0.327
same,relative viability,Calu-6; first compound 0.006325 µM,0.182
same,relative viability,Calu-6; first compound 0.02 µM,0.106
same,relative viability,LOU-NH91; first compound 0.0002 µM,0.483
same,relative viability,LOU-NH91; first compound 0.000632 µM,0.46
same,relative viability,LOU-NH91; first compound 0.002 µM,0.4
same,relative viability,LOU-NH91; first compound 0.006325 µM,0.337
same,relative viability,LOU-NH91; first compound 0.02 µM,0.345
same,relative viability,NCI-H1437; first compound 0.0002 µM,0.472
same,relative viability,NCI-H1437; first compound 0.000632 µM,0.322
same,relative viability,NCI-H1437; first compound 0.002 µM,0.215
same,relative viability,NCI-H1437; first compound 0.006325 µM,0.145
same,relative viability,NCI-H1437; first compound 0.02 µM,0.104
same,relative viability,EBC-1; first compound 0.0002 µM,0.479
same,relative viability,EBC-1; first compound 0.000632 µM,0.385
same,relative viability,EBC-1; first compound 0.002 µM,0.237
same,relative viability,EBC-1; first compound 0.006325 µM,0.27
same,relative viability,EBC-1; first compound 0.02 µM,0.174
same,relative viability,IA-LM; first compound 0.0002 µM,0.471
same,relative viability,IA-LM; first compound 0.000632 µM,0.192
same,relative viability,IA-LM; first compound 0.002 µM,0.11
same,relative viability,IA-LM; first compound 0.006325 µM,0.0654
same,relative viability,IA-LM; first compound 0.02 µM,0.0642
same,relative viability,HCC-44; first compound 0.0002 µM,0.904
same,relative viability,HCC-44; first compound 0.000632 µM,0.905
same,relative viability,HCC-44; first compound 0.002 µM,0.57
same,relative viability,HCC-44; first compound 0.006325 µM,0.151
same,relative viability,HCC-44; first compound 0.02 µM,0.149
same,relative viability,LXF-289; first compound 0.0002 µM,0.995
same,relative viability,LXF-289; first compound 0.000632 µM,0.81
same,relative viability,LXF-289; first compound 0.002 µM,0.594
same,relative viability,LXF-289; first compound 0.006325 µM,0.133
same,relative viability,LXF-289; first compound 0.02 µM,0.0991
